Measured values as given in patent US7247294B1, “Skin lightening agents, compositions and methods” (Conopco, Inc., priority 2006, dated 2007).

System: Melanoderm cultures
Test: Solvable Melanin Assay on Melanoderm cultures (3-D skin model)
Format: cell-based
Details: Melanoderm cultures fed every other day for 2 weeks, controls DMSO 1.292, untreated 1.259
Experimental: This experiment was carried out using Melanoderm cultures. Luminescence was measured using a chromameter to assay the degree of melanization of a 3-D skin model.
Method for Melanoderm Cultures
Melanoderm cultures were obtained from MatTek Corporation, Ashland, Mass. The Melanoderm was maintained according to the manufacturer's instructions. The basal media used for the maintenance of the Melanoderm cultures was DMEM supplemented with unspecified quantities of Epidermal growth factor, Insulin, Hydrocortisone, and proprietary epidermal differentiation compounds, in addition to anti-fungal and antibiotics.
For the long term maintenance of the Melanoderms, the basal media was supplemented with both bFGF and a-MSH, compounds which are stimulators of melanocyte growth and melanogenesis. The cultures were fed every other day for a total of 2 weeks—fresh active preparations, prepared in DMSO or culture media, were also applied to the Melanoderms when feeding was performed. Each treatment condition was done in duplicate and digital photographs were taken of the Melanoderm cultures to assess overall pigmentation. As well, microscopic images of the Melanoderms were done to assess the cell viability of the keratinocytes and melanocytes. For further evidence that the treatments were/not cytotoxic, an LDH assay (Promega, Madison, Wis.) was performed on the supernatants from 24 hour post-treatment cultures.
To prepare tissues for assay:
After treatment, tissues are usually frozen until completion of the experiment. Thaw tissues, a few at a time and place in D-PBS to remove excess phenol red from the culture medium and residual test article. Remove a single tissue from the insert. Blot dry and place in 1.7 ml. microfuge tube. Repeat for all samples. Add 250 ul Solvable™ (Tissue and Gel Solubilizer 0.5 M—Packard BioScience Co. Catalogue No. 6NE9100 (NEF910)). Close the tube and make sure that the tissue is completely submerged. Incubate at 60° C. overnight along with standards. In the morning, vortex the samples. Sometimes thick tissues will require additional time to complete the solution process. To prepare standard: Dissolve Melanin (Sigma cat. M 8631) in Solvable at 1 mg/ml. The solution may be warmed gently for 15 minutes at 37° C. Store solution in dark. To prepare standard curve: Prepare dilutions from the standard containing 0 ug to 250 ug of melanin in a total of 250 ul Solvable. Incubate dilutions along with samples. To read assay: Cool samples and standards. Centrifuge at 13,000 rpm for 5 minutes to pellet. Fill microwell plate (C-96) with 200 ul each of samples and standards. There is some foaming of samples when pipetted. Blow gently across the samples to break bubbles prior to reading the plate. Read plate at […].

O=c1oc2cc(O)ccc2cc1-c1ccccc1 [7-hydroxy-3-phenylcoumarin]
OD = 490 nm (melanin content) (25 uM): 1.674 | OD = 490 nm (melanin content) (50 uM): 1.339 | OD = 490 nm (melanin content) (75 uM): 0.849 | OD = 490 nm (melanin content) (100 uM): 0.293
